The text below walks through data of ChEMBL document CHEMBL1141761, “Constituents of the pericarp of Garcinia subelliptica” (J Nat Prod, 2005).

Molecules are shown by their SMILES. Values after ≈ are worked out from the molar mass of the structure shown. Active and inactive are the calls of the source. The calls are words filed in the database; no cut-off is given here.

By IC50 is commonly meant the concentration that inhibits the measured activity by half.

One assay has as its system HT-29. Nature of the assay: Cytotoxicity against human HT-29 cells by MTT assay. Format: functional, cell-based. In general terms: Tetrazolium dyes change colour on reduction, which living cells bring about.
The next assay deals with MCF7. Briefly: Cytotoxicity against human MCF7 cells by MTT assay. In kind it is functional, cell-based.
In the next assay the test system is Hep 3B2. Nature of the assay: (§1) Cytotoxicity against human Hep3B cells by MTT assay. In kind it is functional, cell-based.
The nature of assay [1]: as §1. In kind it is functional, cell-based, Hep 3B2.

For `C=C(C)CC[C@@H](CC=C(C)C)[C@@H](C(=C)C)[C@](C)(CC=C(C)C)C(=O)c1cccc(O)c1`, the result with HT-29, in the assay with MCF7 and in the assay on Hep 3B2 was inactive.

In the assay with HT-29, `O=c1[nH]cc(F)c(=O)[nH]1` [FLUOROURACIL] had an IC60 of 0.074 mg/L (≈ 0.569 µM). Also, the concentration for half-maximal inhibition (IC50) in the assay with MCF7 turned out to be 0.0012 mg/L (≈ 0.00923 µM); in assay [1], 0.072 mg/L (≈ 0.554 µM).

Regarding `C=C(C)CC[C@@H](C[C@@H]1C[C@]2(CC=C(C)C)C(=O)[C@@](C(=O)c3ccc(O)c(O)c3)(C(=O)C3=C2O[C@@H](C(C)(C)O)C3)C1(C)C)C(=C)C` [GARCINIELLIPTONE FB], the IC50 amounted to 11.2 mg/L (≈ 18.1 µM) with HT-29, 6.8 mg/L (≈ 11 µM) in the assay on MCF7 and 6.3 mg/L (≈ 10.2 µM) in assay [1].
